Source: patent US8741906B2 (priority 2011, dated 2014)
Like-named read-outs stand apart in the source and are kept apart here.

Assays:
human CB2 receptors = molecular target: T1, human CB2 receptors (Homo sapiens, UniProt P34972); assay: functional cAMP assay, human CB2; assay type: cell-based
T1 construct: expressed in transfected cells; host or cells: CHO cells
Procedure: (§1) CHO cells expressing human CB1 or CB2 receptors are seeded 17-24 hours prior to the experiment 50.000 cells per well in a black 96 well plate with flat clear bottom (Corning Costar #3904) in DMEM (Invitrogen No. 31331), 1×HT supplement, with 10% fetal calf serum and incubated at 5% CO2 and 37° C. in a humidified incubator. The growth medium was exchanged with Krebs Ringer Bicarbonate buffer with 1 mM IBMX and incubated at 30° C. for 30 min. Compounds were added to a final assay volume of 100 μl and incubated for 30 min at 30° C. Using the cAMP-Nano-TRF detection kit the assay (Roche Diagnostics) was stopped by the addition of 50 μl lysis reagent (Tris, NaCl, 1.5% Triton X100, 2.5% NP40, 10% NaN3) and 50 μl detection solutions (20 μM mAb Alexa700-cAMP 1:1, and 48 μM Ruthenium-2-AHA-cAMP) and shaken for 2 h at room temperature. The time-resolved energy transfer is measured by a TRF reader (Evotec Technologies GmbH), equipped with a ND:YAG laser as excitation source. The plate is measured twice with the excitation at 355 nm and at the emission with a delay of 100 ns and a gate of 100 ns, total exposure time 10 s at 730 (bandwidth 30 nm) or 645 nm (bandwidth 75 nm), respectively. The FRET signal is calculated as follows: FRET=T730-Alexa730-P(T645-B645) with P=Ru730-B730/Ru645-B645, where T730 is the test well measured at 730 nM, T645 is the test well measured at 645 nm, B730 and B645 are the buffer controls at 730 nm and 645 nm, respectively. cAMP content is determined from the function of a standard curve spanning from 10 μM to 0.13 nM cAMP.
(§2) EC50 values were determined using Activity Base analysis (ID Business Solution, Limited). The EC50 values for a wide range of cannabinoid agonists generated from this assay were in agreement with the values published in the scientific literature.

human CB1 receptors = molecular target: T2, human CB1 receptors (Homo sapiens, UniProt P21554); assay: functional cAMP assay, human CB1; assay type: cell-based
T2 construct: expressed in transfected cells; host or cells: CHO cells
T2 sequence (P21554 whole entry): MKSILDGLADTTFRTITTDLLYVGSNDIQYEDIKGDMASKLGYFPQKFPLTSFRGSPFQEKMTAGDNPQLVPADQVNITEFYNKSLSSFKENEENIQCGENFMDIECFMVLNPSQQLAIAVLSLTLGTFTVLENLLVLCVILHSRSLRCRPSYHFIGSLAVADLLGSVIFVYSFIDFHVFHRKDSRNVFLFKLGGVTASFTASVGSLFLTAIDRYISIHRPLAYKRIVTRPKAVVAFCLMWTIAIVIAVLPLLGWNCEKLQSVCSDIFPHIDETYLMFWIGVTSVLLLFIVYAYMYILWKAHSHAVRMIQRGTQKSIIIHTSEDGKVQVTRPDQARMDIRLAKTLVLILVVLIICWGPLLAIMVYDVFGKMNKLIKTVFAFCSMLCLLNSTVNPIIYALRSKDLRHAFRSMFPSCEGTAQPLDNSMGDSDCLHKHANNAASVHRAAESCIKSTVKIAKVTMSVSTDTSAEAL
Procedure: as §1, §2

[1] = CHO cells expressing human CB2, cAMP, read-out: human CB2 EC50
[2] = CHO cells expressing human CB1, cAMP, read-out: human CB1 EC50

T1 sequence (P34972 whole entry): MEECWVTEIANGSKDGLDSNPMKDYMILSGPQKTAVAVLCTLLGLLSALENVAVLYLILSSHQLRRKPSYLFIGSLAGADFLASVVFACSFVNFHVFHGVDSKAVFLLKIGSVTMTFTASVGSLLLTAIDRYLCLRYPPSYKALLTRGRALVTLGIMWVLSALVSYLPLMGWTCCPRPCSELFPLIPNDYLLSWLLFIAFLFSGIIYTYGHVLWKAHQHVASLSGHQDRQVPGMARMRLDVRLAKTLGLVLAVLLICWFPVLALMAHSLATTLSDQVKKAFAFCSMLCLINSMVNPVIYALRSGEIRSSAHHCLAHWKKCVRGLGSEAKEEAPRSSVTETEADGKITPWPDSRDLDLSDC

Row | EC50 (human CB2 receptors) [nM] | SMILES | EC50 (human CB2 receptors; [1]) [nM] | EC50 (human CB1 receptors; [2]) [nM] | EC50 (human CB1 receptors) [nM]
1 | – | CC(C)(C)c1nc(N2CCC(F)(F)C2)c2nnn(Cc3c(Cl)ccc(Cl)c3Cl)c2n1 [Example 119, 5-tert-Butyl-7-(3,3-difluoro-pyrrolidin-1-yl)-3-(2,3,6-trichloro-benzyl)-3H-[1,2,3]triazolo[4,5-d]pyrimidine] | 0.3 | 91 | –
2 | – | CC(C)(C)c1nc(N2CCC[C@@H]2C#N)c2nnn(Cc3ccccc3Cl)c2n1 [Example 49, (R)-1-[5-tert-Butyl-3-(2-chloro-benzyl)-3H-[1,2,3]triazolo[4,5-d]pyrimidin-7-yl]-pyrrolidine-2-carbonitrile] | 1.1 | 155 | –
3 | – | CC(C)(C)c1nc(N2CCC3(COC3)C2)c2nnn(Cc3ccccc3Cl)c2n1 [Example 31, 5-tert-Butyl-3-(2-chloro-benzyl)-7-(2-oxa-6-aza-spiro[3.4]oct-6-yl)-3H-[1,2,3]triazolo[4,5-d]pyrimidine] | 9.8 | 1260 | –
4 | – | CC(C)(C)c1nc(N2CC[C@@H](F)C2)c2nnn(Cc3ccccc3Cl)c2n1 [Example 42, 5-tert-Butyl-3-(2-chloro-benzyl)-7-((R)-3-fluoro-pyrrolidin-1-yl)-3H-[1,2,3]triazolo[4,5-d]pyrimidine] | 0.3 | 991 | –
5 | – | CC(C)(C)c1nc(N2CCC(F)(F)C2)c2nnn(CC(=O)c3ccc(Cl)cc3)c2n1 [Example 116, 2-[5-tert-Butyl-7-(3,3-difluoro-pyrrolidin-1-yl)-[1,2,3]triazolo[4,5-d]pyrimidin-3-yl]-1-(4-chloro-phenyl)-ethanone] | 3 | > 10000 | –
6 | – | Cc1c(Cn2nnc3c(N4CCC(F)(F)C4)nc(C(C)(C)C)nc32)ccc[n+]1[O-] [Example 147, 5-tert-Butyl-7-(3,3-difluoro-pyrrolidin-1-yl)-3-(2-methyl-1-oxy-pyridin-3-ylmethyl)-3H-[1,2,3]triazolo[4,5-d]pyrimidine] | 0.3 | 209 | –
7 | – | CC(C)(C)c1nc(N2CCCOCC2)c2nnn(Cc3ccccc3Cl)c2n1 [Example 22, 5-tert-Butyl-3-(2-chloro-benzyl)-7-[1,4]oxazepan-4-yl-3H-[1,2,3]triazolo[4,5-d]pyrimidine] | 2.4 | 1500 | –
8 | – | C[C@@H]1CN(c2nc(C(C)(C)C)nc3c2nnn3Cc2ccccc2Cl)C[C@H](C)O1 [Example 16, 5-tert-Butyl-3-(2-chloro-benzyl)-7-((2R,6S)-2,6-dimethyl-morpholin-4-yl)-3H-[1,2,3]triazolo[4,5-d]pyrimidine] | 286 | – | > 10000
9 | – | Cc1nnc(Cn2nnc3c(N4CC(F)(F)C(F)(F)C4)nc(C(C)(C)C)nc32)n1C [Example 177, 5-tert-Butyl-3-(4,5-dimethyl-4H-[1,2,4]triazol-3-ylmethyl)-7-(3,3,4,4-tetrafluoro-pyrrolidin-1-yl)-3H-[1,2,3]triazolo[4,5-d]pyrimidine] | 1.1 | > 10000 | –
10 | – | CC(C)(C)c1nc(N2CCOCC2)c2nnn(Cc3ccccc3Cl)c2n1 [Example 1, 5-tert-butyl-3-(2-chlorobenzyl)-7-morpholin-4-yl-3H-[1,2,3]triazolo[4,5-d]pyrimidine] | 0.6 | 1060 | –
11 | – | CC(C)(C)c1nc(N2CCC(F)(F)C2)c2nnn(Cc3ccccc3C#N)c2n1 [Example 83, 2-[5-tert-Butyl-7-(3,3-difluoro-pyrrolidin-1-yl)-[1,2,3]triazolo[4,5-d]pyrimidin-3-ylmethyl]-benzonitrile] | 0.1 | 283 | –
12 | – | CC(C)(C)c1nc(N2CCC(F)(F)C2)c2nnn([C@@H]3CCOC3)c2n1 [Example 108, 5-tert-Butyl-7-(3,3-difluoro-pyrrolidin-1-yl)-3-(R)-tetrahydro-furan-3-yl-3H-[1,2,3]triazolo[4,5-d]pyrimidine] | 0.3 | > 10000 | –
13 | – | CC(C)(C)c1nc(N2CC[C@H](O)[C@@H]2CO)c2nnn(Cc3nnnn3C3CC3)c2n1 [Example 166, (2S,3S)-1-[5-tert-Butyl-3-(1-cyclopropyl-1H-tetrazol-5-ylmethyl)-3H-[1,2,3]triazolo[4,5-d]pyrimidin-7-yl]-2-hydroxymethyl-pyrrolidin-3-ol] | 18 | > 10000 | –
14 | – | Cc1nonc1Cn1nnc2c(N3CC[C@H](O)C3)nc(C(C)(C)C)nc21 [Example 136, (S)-1-[5-tert-Butyl-3-(4-methyl-furazan-3-ylmethyl)-3H-[1,2,3]triazolo[4,5-d]pyrimidin-7-yl]-pyrrolidin-3-ol] | 0.2 | > 10000 | –
15 | – | Cc1nnc(Cn2nnc3c(N4CC[C@](C)(O)C4)nc(C(C)(C)C)nc32)o1 [Example 225-a, (S)-1-(5-tert-butyl-3-((5-methyl-1,3,4-oxadiazol-2-yl)methyl)-3H-[1,2,3]triazolo[4,5-d]pyrimidin-7-yl)-3-methylpyrrolidin-3-ol] | 29.1 | > 10000 | –
16 | – | CC(C)(C)c1nc(N2CC[C@H](O)C2)c2nnn(Cc3ncccc3Cl)c2n1 [Example 138, (S)-1-[5-tert-Butyl-3-(3-chloro-pyridin-2-ylmethyl)-3H-[1,2,3]triazolo[4,5-d]pyrimidin-7-yl]-pyrrolidin-3-ol] | 0.4 | > 10000 | –
17 | – | COc1ccc(Cn2nnc3c(N4CC[C@H](O)[C@@H]4CO)nc(C(C)(C)C)nc32)cc1 [Example 159, (2S,3S)-1-[5-tert-Butyl-3-(4-methoxy-benzyl)-3H-[1,2,3]triazolo[4,5-d]pyrimidin-7-yl]-2-hydroxymethyl-pyrrolidin-3-ol] | 35.8 | > 10000 | –
18 | – | COc1ccccc1Cn1nnc2c(N3CCC(F)(F)C3)nc(C(C)(C)C)nc21 [Example 81, 5-tert-Butyl-7-(3,3-difluoro-pyrrolidin-1-yl)-3-(2-methoxy-benzyl)-3H-[1,2,3]triazolo[4,5-d]pyrimidine] | 0.1 | 68.9 | –
19 | – | Cc1nnc(Cn2nnc3c(N4CCC(F)(F)C4)nc(C(C)(C)C)nc32)o1 [Example 128, 5-tert-Butyl-7-(3,3-difluoro-pyrrolidin-1-yl)-3-(5-methyl-[1,3,4]oxadiazol-2-ylmethyl)-3H-[1,2,3]triazolo[4,5-d]pyrimidine] | 0.4 | > 10000 | –
20 | – | CC(C)(C)c1nc(N2CCC(F)(F)C2)c2nnn(Cc3cccc(F)c3Cl)c2n1 [Example 89, 5-tert-Butyl-3-(2-chloro-3-fluoro-benzyl)-7-(3,3-difluoro-pyrrolidin-1-yl)-3H-[1,2,3]triazolo[4,5-d]pyrimidine] | 0.3 | 463 | –
21 | 4.7 | Cn1nnnc1Cn1nnc2c(N3CCC(O)C3)nc(C(C)(C)C)nc21 (stereo not drawn) [Example 220, 1-(5-tert-butyl-3-((1-methyl-1H-tetrazol-5-yl)methyl)-3H-[1,2,3]triazolo[4,5-d]pyrimidin-7-yl)pyrrolidin-3-ol] | – | – | > 10000
22 | – | CC(C)(C)c1nc(N2CCC(F)(F)C2)c2nnn(Cc3ccncc3)c2n1 [Example 75, 5-tert-Butyl-7-(3,3-difluoro-pyrrolidin-1-yl)-3-pyridin-4-ylmethyl-3H-[1,2,3]triazolo[4,5-d]pyrimidine] | 0.2 | 97.8 | –
23 | 1.4 | Cn1nnnc1Cn1nnc2c(N3CC[C@H](O)C3)nc(C(C)(C)C)nc21 [Example 151, (S)-1-[5-tert-Butyl-3-(1-methyl-1H-tetrazol-5-ylmethyl)-3H-[1,2,3]triazolo[4,5-d]pyrimidin-7-yl]-pyrrolidin-3-ol] | – | – | > 10000
24 | – | Cc1nonc1Cn1nnc2c(N3CC(F)(F)C(F)(F)C3)nc(C(C)(C)C)nc21 [Example 173, 5-tert-Butyl-3-(4-methyl-furazan-3-ylmethyl)-7-(3,3,4,4-tetrafluoro-pyrrolidin-1-yl)-3H-[1,2,3]triazolo[4,5-d]pyrimidine] | 0.3 | > 10000 | –
25 | – | Cc1nnc(Cn2nnc3c(N4CCC(F)(F)C4)nc(C(C)(C)C)nc32)n1C [Example 146, 5-tert-Butyl-7-(3,3-difluoro-pyrrolidin-1-yl)-3-(4,5-dimethyl-4H-[1,2,4]triazol-3-ylmethyl)-3H-[1,2,3]triazolo[4,5-d]pyrimidine] | 0.5 | > 10000 | –
26 | – | CCN(CC)c1nc(C(C)(C)C)nc2c1nnn2Cc1ccccc1Cl [Example 9, [5-tert-Butyl-3-(2-chloro-benzyl)-3H-[1,2,3]triazolo[4,5-d]pyrimidin-7-yl]-diethyl-amine] | 17.6 | > 10000 | –
27 | – | CC(C)(C)c1nc(N2CCC(c3ccccc3)C2)c2nnn(Cc3ccccc3Cl)c2n1 (stereo not drawn) [Example 195, 5-tert-Butyl-3-(2-chloro-benzyl)-7-(3-phenyl-pyrrolidin-1-yl)-3H-[1,2,3]triazolo[4,5-d]pyrimidine] | 467 | – | > 10000
